Laboratory results reported in patent US7977403B2, “Antiseptic containing silicone elastomers” (Bayer Innovation GmbH, priority 2006, dated 2011).

Tested on: L 929 mouse fibroblast cells
Assay: Biocompatibility (cytotoxicity) test of material extract, DIN ISO 10993-5
Format: cell-based
Conditions: final concentration 1%, 48 h
Protocol: Biocompatibility Tests as Specified in DIN ISO 10993-5 (1999), EN 30993-5 (1994) The catheter shafts from Example 13 were for this purpose extracted non-sterile at 37° C. and 5% pCO2 in extraction medium (DMEM including antibiotics without FCS) for 24 h. The surface-volume ratio was 1 cm^2/ml of extraction medium. After completion of the extraction, the extraction medium was sterilized by filtration and supplemented with sterile FCS (final concentration: 10% FCS in the extraction medium). The FCS-supplemented extraction medium was put sterile on precultured L 929 mouse fibroblast cells and incubated at 37° C., 5% pCO2 for 48 h. The extract was subjected to quadruplicate parallel testing. Triton X 100 was added to the L929 cells used as toxic positive control (final concentration 1%). Cell culture medium served as non-toxic negative control. After the 48-hour incubation, the release of lactate dehydrogenase (LDH) in the cell culture supernatant was measured by a photometric method. The cells were then subjected to alkaline lysis and the protein content was measured by the Bradford method. The cells were fixed and stained with methylene blue to determine the cell count. After acidic extraction of the methylene blue, the dye content was ascertained by photometry and the extinction was compared with a standard curve in order to determine the cell count on the basis of the dye concentration. Results are shown at FIG. 12.

## Triton X 100
Bradford method
  Protein content relative to negative control: 6.8 % of the negative control value
Cell culture supernatant
  Specific LDH activity increase compared with the negative control: more than 31 fold
Methylene blue
  Cell count relative to negative control: 0.5 % of the negative control value
